Where two headings read alike, the source gives them in different places.
What was measured:
gout patients [1] = test: Serum uric acid level in gout patients per dose; type: in vivo, human; conditions: 14 days; for patients whose serum uric acid level fell below <5.0 mg/dL / percentage of patients whose serum uric acid level fell below <5.0 mg/dL: measured 15th day
Procedure: The compound was orally administered at doses of 0.25 mg (N=12), 0.5 mg (N=12), 1 mg (N=12) and 2 mg (N=12) based on the active ingredient (3,5-dibromo-4-hydroxyphenyl)(2,3-dihydro-4H-pyrido[4,3-b][1,4]oxazin-4-yl)-methanone (Formula I), and placebo (N=12), for 14 days. The efficacy and safety of the compound on the serum uric acid (UA) level was evaluated in comparison with the placebo.
Serum uric acid levels were measured on the 15th day after administration, and the percentages of patients whose serum uric acid level fell below <6.0 mg/dL and below <5.0 mg/dL were determined and shown in FIG. 13. […] From the above results, it could be understood that a dose less than 2 mg is not effective in the treatment of diseases such as hyperuricemia and gout.
In addition, for a total of 68 gout patients, (3,5-dibromo-4-hydroxyphenyl)(2,3-dihydro-4H-pyrido[4,3-b][1,4]oxazin-4-yl)-methanone hydrochloride 1.5 hydrate according to the present invention was administered. The compound was orally administered at doses of 3 mg (N=13), 5 mg (N=14), 7 mg (N=15) and 10 mg (N=15) based on the active ingredient (3,5-dibromo-4-hydroxyphenyl)(2,3-dihydro-4H-pyrido[4,3-b][1,4]oxazin-4-yl)-methanone (Formula I), and placebo (N=11), for 14 days. The efficacy and safety of the compound on the serum uric acid level was evaluated in comparison with the placebo.
Serum uric acid levels were measured on the 15th day after administration, and the percentages of patients whose serum uric acid level fell below <6.0 mg/dL and below <5.0 mg/dL were determined and shown in FIG. 14.

[2] = for Initial purity: before storage; for form in which the salt was obtained: salt forms prepared by the same process
[3] = Physical stability to processing factors (grinding, granulating, tableting); type: physicochemical
Description: In addition, the physical stability to processing factors in the preparation of the above 1.5 hydrate and the non-solvate were compared, and the results are shown in Table 2 below.

[4] = Solubility test in FeSSIF; type: physicochemical; conditions: At 240 minutes; 50 mL FeSSIF (pH 5.0), 37° C., paddle 50 rpm; 10 mg compound + 100 mg lactose
Procedure: The solubility test was carried out using 50 mL of FeSSIF (pH 5.0) as a medium and setting the paddle speed at 50 rpm under the operation condition at 37° C.

gout patients [5] = test: Adverse drug reaction per dose in gout patients; type: in vivo, human; conditions: oral, 14 days
Procedure: The compound was orally administered at doses 3 mg (N=14), 5 mg (N=15), 7 mg (N=17) and 10 mg (N=17) based on the active ingredient (3,5-dibromo-4-hydroxyphenyl)(2,3-dihydro-4H-pyrido[4,3-b][1,4]oxazin-4-yl)-methanone (Formula I), and placebo (N=13), for 14 days, and the adverse drug reaction was investigated.

gout patients [6] = test: Urinary creatinine levels in gout patients; type: in vivo, human; conditions: 10 mg, oral, 14 days
Procedure: Furthermore, urinary creatinine levels were also measured in the same patients. The number of cases in which creatinine is increased by more than 0.3 mg/dL or more than 1.5 times compared to baseline is shown in Table 4 below.

[7] = 30% v/w solvent, granulated about 2 min, dried at 50° C.

In the case of `O=C(c1cc(Br)c(O)c(Br)c1)N1CCOc2ccncc21` [compound of Formula I, (3,5-dibromo-4-hydroxyphenyl)(2,3-dihydro-4H-pyrido[4,3-b][1,4]oxazin-4-yl)-methanone], the “patients whose serum uric acid level fell below <5.0 mg/dL” value (gout patients [1]; 0.25 mg oral) is reported as “no patient”, the “patients whose serum uric acid level fell below <5.0 mg/dL” value (gout patients [1]; 0.5 mg oral) is reported as “no patient” and the “patients whose serum uric acid level fell below <5.0 mg/dL” value (gout patients [1]; 1 mg oral) is reported as “no patient”. For the same compound, the “percentage of patients whose serum uric acid level fell below <5.0 mg/dL” value (“percentage” below) (gout patients [1]; 2 mg oral) was “about 8%”, the “percentage” value (gout patients [1]; 3 mg oral) was “approximately 23%” and the “percentage” value (gout patients [1]; 5 mg oral) was roughly 64%. The “percentage” value (gout patients [1]; 7 mg oral) was roughly 80% and the “percentage” value (gout patients [1]; 10 mg oral) was roughly 73%.

In the case of `c1cc2c(cn1)NCCO2` [Free base], the “purity, 1 week” value ([2]; 30° C., 65% RH) is reported as 97.72%, the “purity, 2 weeks” value ([2]; 30° C., 65% RH) is reported as 97.96% and the “purity, 4 weeks” value ([2]; 30° C., 65% RH) is reported as 98.18%. For the same compound, the “purity, 1 week” value ([2]; 40° C., 75% RH) was 97.74%, the “purity, 2 weeks” value ([2]; 40° C., 75% RH) was 97.91% and the “purity, 4 weeks” value ([2]; 40° C., 75% RH) was 98.10%. For the same compound, the Initial purity [2] was 99.36% and the “Note (purity over the stability test)” value ([2]; both conditions, up to 4 weeks) was greater than 97.5%.

With `O=S(=O)(O)O.c1cc2c(cn1)NCCO2` [Sulfate] the “purity, 1 week” value ([2]; 30° C., 65% RH) was 99.05%, the “purity, 2 weeks” value ([2]; 30° C., 65% RH) was 99.85% and the “purity, 4 weeks” value ([2]; 30° C., 65% RH) was “melted”. For the same compound, the “purity, 1 week” value ([2]; 40° C., 75% RH) was “melted”, the “purity, 2 weeks” value ([2]; 40° C., 75% RH) was “melted” and the “purity, 4 weeks” value ([2]; 40° C., 75% RH) was “melted”. The Initial purity [2] was 98.88%, the “Note (stability verdict)” value ([2]; both conditions, up to 4 weeks) was “unstable” and the “form in which the salt was obtained” value [2] was “solid form”. For the same compound, the “stability test outcome in words” value ([2]; stability test for 4 weeks) was “the solid melted again to a liquid”.

In the case of `O=P(O)(O)O.c1cc2c(cn1)NCCO2`, the “form in which the salt was obtained” value [2] is reported as “gel form”.

In the case of `Cl.c1cc2c(cn1)NCCO2`, the “form in which the salt was obtained” value [2] is reported as “unstable in a semi-solid form”.

In the case of `Cl.Cl.O.O.O.O=C(c1cc(Br)c(O)c(Br)c1)N1CCOc2ccncc21.O=C(c1cc(Br)c(O)c(Br)c1)N1CCOc2ccncc21` [hydrochloride 1.5 hydrate, (3,5-dibromo-4-hydroxyphenyl)(2,3-dihydro-4H-pyrido[4,3-b][1,4]oxazin-4-yl)-methanone hydrochloride 1.5 hydrate], the “Crystallinity change after Tableting” value ([3]; 2 tons of pressure for 5 sec, 7 mm punches, powder X-ray diffractometer) is reported as “Δ5% (94→89%)”, the “Solid form after Granulating with 1:1 of water and ethanol” value [3, 7] is reported as “Unchanged” and the “Solid form after Granulating with water” value [3, 7] is reported as “Unchanged”. For the same compound, the “solid forms in granulating” value ([3]; granulating) was “no change”, the “Crystallinity change after Grinding” value ([3]; ground about 2 min using a mortar, powder X-ray diffractometer) was “Δ3% (94→91%)” and the solubility [4] was “about 125 μg/mL”. For the same compound, the “patients whose serum uric acid level fell below <5.0 mg/dL” value (gout patients [1]; 0.25 mg oral) was “no patient”, the “patients whose serum uric acid level fell below <5.0 mg/dL” value (gout patients [1]; 0.5 mg oral) was “no patient” and the “patients whose serum uric acid level fell below <5.0 mg/dL” value (gout patients [1]; 1 mg oral) was “no patient”. For the same compound, the “percentage” value (gout patients [1]; 2 mg oral) was “about 8%”, the “percentage” value (gout patients [1]; 3 mg oral) was “approximately 23%” and the “Patients whose serum uric acid level fell below <6.0 mg/dL” value (gout patients [1]; 3 mg, 5 mg, 7 mg and 10 mg, oral) was “appeared in all experimental doses”. For the same compound, the “percentage” value (gout patients [1]; 5 mg oral) was roughly 64%, the “percentage” value (gout patients [1]; 7 mg oral) was roughly 80% and the “percentage” value (gout patients [1]; 10 mg oral) was roughly 73%. The “arthralgia (adverse drug reaction)” value (gout patients [5]; 3 mg (N = 14)) was 0, the “joint swelling (adverse drug reaction)” value (gout patients [5]; 3 mg (N = 14)) was 0 and the “incidence of adverse events such as arthralgia and joint swelling” value (gout patients [5]; 3 mg, 5 mg, 7 mg and 10 mg) was “no or very low incidence”. The “arthralgia (adverse drug reaction)” value (gout patients [5]; 5 mg (N = 15)) was 0, the “joint swelling (adverse drug reaction)” value (gout patients [5]; 5 mg (N = 15)) was 0 and the “arthralgia (adverse drug reaction)” value (gout patients [5]; 7 mg (N = 17)) was 0. The “joint swelling (adverse drug reaction)” value (gout patients [5]; 7 mg (N = 17)) was 0, the “arthralgia (adverse drug reaction), cases” value (gout patients [5]; 10 mg (N = 17)) was “[3 cases]” and the “arthralgia (adverse drug reaction), persons” value (gout patients [5]; 10 mg (N = 17)) was 2 persons. For the same compound, the “arthralgia (adverse drug reaction), share of persons” value (gout patients [5]; 10 mg (N = 17)) was 11.76%, the “joint swelling (adverse drug reaction), cases” value (gout patients [5]; 10 mg (N = 17)) was “[1 case]” and the “joint swelling (adverse drug reaction), persons” value (gout patients [5]; 10 mg (N = 17)) was 1 person. For the same compound, the “joint swelling (adverse drug reaction), share of persons” value (gout patients [5]; 10 mg (N = 17)) was 5.88% and the “Number of cases in which creatinine is increased by more than 0.3 mg/dL or more than 1.5 times compared to baseline” value (gout patients [6]) was 3.

Source: patent publication US12030895B2, “Method for preparing heterocyclic derivative compound, composition containing same compound, and hydrate of same compound” (JW PHARMACEUTICAL CORPORATION, priority 2017, dated 2024)
